Among the data in ChEMBL document CHEMBL1201862, “PubChem BioAssay data set” (2004) are IC50, AC50 and EC50 values, retold here.

One test deals with Genome polyprotein (Hepatitis C virus, UniProt Q2Q167). Briefly: HCV core protein dimerization inhibitors, dose response, biochemical, TR-FRET (AID 2159).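 Note: blocks dimerization of HCV core protein measured by TR-FRET between tagged core106 pairs.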 The arrangement: species or system Hepacivirus hominis. In general terms: Time-resolved FRET reads energy transfer from a long-lived donor to a nearby acceptor.
Test [1] deals with T1, Low molecular weight phosphotyrosine protein phosphatase (Homo sapiens, UniProt P24666).
T1 sequence (P24666 whole entry): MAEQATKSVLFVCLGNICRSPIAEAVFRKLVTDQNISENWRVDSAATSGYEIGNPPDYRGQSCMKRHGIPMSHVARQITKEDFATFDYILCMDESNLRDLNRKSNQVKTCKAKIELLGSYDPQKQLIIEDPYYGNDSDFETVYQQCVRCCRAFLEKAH
It is filed as functional. Particulars: read-out: IC50_Mean.

Test [2] deals with Induced myeloid leukemia cell differentiation protein Mcl-1 (Homo sapiens, UniProt Q07820). The format is functional.
The target of test [3] is T2, Calpain-2 catalytic subunit (Sus scrofa, UniProt P43367).
T2 sequence (P43367 whole entry): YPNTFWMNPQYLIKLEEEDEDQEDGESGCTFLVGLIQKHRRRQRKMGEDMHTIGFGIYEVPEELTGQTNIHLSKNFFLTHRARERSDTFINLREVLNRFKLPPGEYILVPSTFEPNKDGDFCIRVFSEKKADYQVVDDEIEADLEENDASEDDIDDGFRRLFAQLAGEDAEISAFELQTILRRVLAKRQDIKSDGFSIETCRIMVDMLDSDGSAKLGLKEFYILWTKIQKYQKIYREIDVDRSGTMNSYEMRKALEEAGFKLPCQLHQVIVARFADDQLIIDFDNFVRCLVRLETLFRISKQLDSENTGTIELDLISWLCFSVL
Put plainly: pig calpain II inhibitor potency, dose response, biochemical, fluorogenic peptide substrate (AID 1420). The format is functional.

Test [4] concerns the target T1, Low molecular weight phosphotyrosine protein phosphatase. It is filed as functional. To be noted: read-out: IC50_Mean. The source holds these as a separate data set.
In test [5] the target is C-C chemokine receptor type 6 (Homo sapiens, UniProt P51684). Put plainly: CCR6 receptor antagonists, dose response, cell-based, luminescent beta-arrestin readout (AID 504728). It is filed as functional.
C-C chemokine receptor type 6, sequence (P51684 whole entry): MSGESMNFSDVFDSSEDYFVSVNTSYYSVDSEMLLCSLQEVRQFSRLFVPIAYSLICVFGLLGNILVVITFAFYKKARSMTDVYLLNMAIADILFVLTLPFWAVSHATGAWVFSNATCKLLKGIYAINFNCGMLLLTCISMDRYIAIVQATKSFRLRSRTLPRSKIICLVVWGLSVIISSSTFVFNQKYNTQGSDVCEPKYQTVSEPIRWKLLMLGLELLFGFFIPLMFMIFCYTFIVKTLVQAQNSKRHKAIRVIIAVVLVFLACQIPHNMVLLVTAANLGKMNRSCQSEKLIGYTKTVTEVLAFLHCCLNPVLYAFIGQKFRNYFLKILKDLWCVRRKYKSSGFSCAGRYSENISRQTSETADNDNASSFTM
The target in test [6] is Eukaryotic translation initiation factor 4E (Mus musculus, UniProt P63073). Put plainly: eIF4E–eIF4G protein interaction inhibitors, dose response, biochemical, TR-FRET (AID 855).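 Note: potency for disrupting eIF4E binding to eIF4GI seen as loss of FRET.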 It is filed as functional.
Another test addresses Beta-galactosidase (Escherichia coli, UniProt Q8VNN2). Put plainly: beta-galactosidase enzyme inhibitors and activators, dose response, artefact control for CCR6 antagonist project, biochemical, E. coli enzyme, set 3 (AID 504712). The format is functional.
Test [7] addresses T3, Carboxy-terminal domain RNA polymerase II polypeptide A small phosphatase 1 (Homo sapiens, UniProt Q9GZU7).
T3 sequence (Q9GZU7 whole entry): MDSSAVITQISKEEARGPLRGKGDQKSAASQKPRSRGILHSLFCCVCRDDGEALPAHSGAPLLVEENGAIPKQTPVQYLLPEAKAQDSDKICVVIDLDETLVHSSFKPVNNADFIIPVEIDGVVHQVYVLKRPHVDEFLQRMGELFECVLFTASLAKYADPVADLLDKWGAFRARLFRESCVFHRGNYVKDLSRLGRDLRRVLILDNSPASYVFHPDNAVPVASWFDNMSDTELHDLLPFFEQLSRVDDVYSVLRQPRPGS
Put plainly: inhibitors of CTDSP1, concentration-response testing, biochemical assay, absorbance-based, actives from ultra-high-throughput screening (AID 540297). It is filed as functional.

The next test relates to Staphylococcus aureus. Briefly: Inhibitors of Bacterial Quorum Sensing Structure Activity Relationship (SAR) Analysis: Dose Response Assay. [Related pubchem assays: 700, 527 ]. It is filed as functional, organism-based.
For test [8], the target named is Acyl-homoserine lactone acylase PvdQ (Pseudomonas aeruginosa (strain LESB58), UniProt Q9I194). Put plainly: P. aeruginosa PvdQ acylase inhibitors, dose response, biochemical, fluorescence, plate reader and imaging, cherry-picks (AID 493231).
A short description of test [9]: cytotoxicity in HEK-293T cells, dose response, cytotoxicity control for BCR NF-kB inhibitor project, luminescence, B-cell screen hits (AID 489021).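 Note: HEK-293T cells carrying an NF-kB luciferase reporter; cells exposed to compound for about 14 hours before viability readout.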 It is filed as functional, cell-based.
The target in test [10] is T4, RNA-binding protein pos-1 (Caenorhabditis elegans, UniProt G5EF15).
T4 sequence (G5EF15 whole entry): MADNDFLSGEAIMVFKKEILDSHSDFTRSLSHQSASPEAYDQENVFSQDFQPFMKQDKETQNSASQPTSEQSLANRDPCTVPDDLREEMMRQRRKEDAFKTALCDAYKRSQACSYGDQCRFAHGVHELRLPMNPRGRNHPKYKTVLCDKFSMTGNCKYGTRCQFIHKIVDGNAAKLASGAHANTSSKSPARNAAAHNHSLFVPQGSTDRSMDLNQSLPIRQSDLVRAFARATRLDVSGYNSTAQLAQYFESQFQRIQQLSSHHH
Put plainly: inhibitors of POS-1/mex-3 RNA binding, dose response, biochemical, fluorescence polarization (AID 1964).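 Note: purified POS-1 fused to maltose binding protein made in E. coli; potency of compounds blocking POS-1 binding to fluorescent RNA.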

The target of test [11] is T5, Zinc finger protein mex-5 (Caenorhabditis elegans, UniProt Q9XUB2).
T5 sequence (Q9XUB2 whole entry): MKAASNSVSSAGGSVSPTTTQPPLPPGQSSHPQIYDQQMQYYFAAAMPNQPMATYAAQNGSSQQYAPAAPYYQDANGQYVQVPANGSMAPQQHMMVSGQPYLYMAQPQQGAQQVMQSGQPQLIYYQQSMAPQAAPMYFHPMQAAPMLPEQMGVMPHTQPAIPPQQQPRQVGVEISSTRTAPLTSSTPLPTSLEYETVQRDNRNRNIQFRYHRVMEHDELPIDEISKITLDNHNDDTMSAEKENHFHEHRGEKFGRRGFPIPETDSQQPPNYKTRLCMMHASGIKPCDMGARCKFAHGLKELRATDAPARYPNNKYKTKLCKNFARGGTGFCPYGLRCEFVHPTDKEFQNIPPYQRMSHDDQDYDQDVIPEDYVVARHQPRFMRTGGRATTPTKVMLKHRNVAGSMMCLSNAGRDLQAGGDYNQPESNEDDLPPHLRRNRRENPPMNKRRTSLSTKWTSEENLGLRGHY
Briefly: MEX-5/TCR-2 RNA interaction inhibitors, dose response, biochemical, C. elegans, fluorescence polarization (AID 1960).

The target in test [12] is Neurotensin receptor type 1 (Homo sapiens, UniProt P30989). It is filed as functional.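 Note: Image-based confirmatory dose-response assay measuring agonist activity at NTR1; NTR1-expressing U2OS osteosarcoma cells imaged for beta-arrestin GFP spot formation; agonist potency where compounds increase beta-arrestin recruitment.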
Neurotensin receptor type 1, sequence (P30989 whole entry): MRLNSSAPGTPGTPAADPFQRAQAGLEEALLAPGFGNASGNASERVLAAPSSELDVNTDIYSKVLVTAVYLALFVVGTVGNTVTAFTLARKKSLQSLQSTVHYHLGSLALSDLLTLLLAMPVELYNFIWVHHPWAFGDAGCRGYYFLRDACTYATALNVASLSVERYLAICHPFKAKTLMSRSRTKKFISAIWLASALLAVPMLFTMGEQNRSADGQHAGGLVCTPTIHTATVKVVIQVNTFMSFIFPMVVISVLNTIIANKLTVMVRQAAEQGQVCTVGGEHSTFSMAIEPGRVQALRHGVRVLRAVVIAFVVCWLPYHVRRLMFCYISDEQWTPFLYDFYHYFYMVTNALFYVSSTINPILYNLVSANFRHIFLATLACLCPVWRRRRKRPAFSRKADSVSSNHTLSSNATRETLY
The target in test [13] is Melanin-concentrating hormone receptor 1 (Homo sapiens, UniProt Q99705). Briefly: Fluorescence-based counterscreen for antagonists of the G-protein coupled receptor 7 (GPR7): cell-based high throughput dose response assay to identify antagonists of the melanin-concentrating hormone receptor 1 (MCHR1). The format is functional.
Test [14] concerns the target Neuropeptides B/W receptor type 1 (Homo sapiens, UniProt P48145). Put plainly: Fluorescence-based dose response cell-based high throughput screening assay to identify antagonists of the G-protein coupled receptor 7 (GPR7). [Related pubchem assays: 1952 (Screening assay (GPR7 antagonists).), 1880 (Summary AID.)]. It is filed as functional.
The target in test [15] is T6, Voltage-gated N-type calcium channel alpha-1B subunit/Amyloid beta A4 precursor protein-binding family A member 1 (Homo sapiens, UniProt Q00975+Q02410). Put plainly: disruptors of Mint-PDZ/N-type channel peptide interaction – biochemical, HTRF, set 2, SAR follow-up (AID 434980). It is filed as functional.
T6 sequence (Q00975 whole entry): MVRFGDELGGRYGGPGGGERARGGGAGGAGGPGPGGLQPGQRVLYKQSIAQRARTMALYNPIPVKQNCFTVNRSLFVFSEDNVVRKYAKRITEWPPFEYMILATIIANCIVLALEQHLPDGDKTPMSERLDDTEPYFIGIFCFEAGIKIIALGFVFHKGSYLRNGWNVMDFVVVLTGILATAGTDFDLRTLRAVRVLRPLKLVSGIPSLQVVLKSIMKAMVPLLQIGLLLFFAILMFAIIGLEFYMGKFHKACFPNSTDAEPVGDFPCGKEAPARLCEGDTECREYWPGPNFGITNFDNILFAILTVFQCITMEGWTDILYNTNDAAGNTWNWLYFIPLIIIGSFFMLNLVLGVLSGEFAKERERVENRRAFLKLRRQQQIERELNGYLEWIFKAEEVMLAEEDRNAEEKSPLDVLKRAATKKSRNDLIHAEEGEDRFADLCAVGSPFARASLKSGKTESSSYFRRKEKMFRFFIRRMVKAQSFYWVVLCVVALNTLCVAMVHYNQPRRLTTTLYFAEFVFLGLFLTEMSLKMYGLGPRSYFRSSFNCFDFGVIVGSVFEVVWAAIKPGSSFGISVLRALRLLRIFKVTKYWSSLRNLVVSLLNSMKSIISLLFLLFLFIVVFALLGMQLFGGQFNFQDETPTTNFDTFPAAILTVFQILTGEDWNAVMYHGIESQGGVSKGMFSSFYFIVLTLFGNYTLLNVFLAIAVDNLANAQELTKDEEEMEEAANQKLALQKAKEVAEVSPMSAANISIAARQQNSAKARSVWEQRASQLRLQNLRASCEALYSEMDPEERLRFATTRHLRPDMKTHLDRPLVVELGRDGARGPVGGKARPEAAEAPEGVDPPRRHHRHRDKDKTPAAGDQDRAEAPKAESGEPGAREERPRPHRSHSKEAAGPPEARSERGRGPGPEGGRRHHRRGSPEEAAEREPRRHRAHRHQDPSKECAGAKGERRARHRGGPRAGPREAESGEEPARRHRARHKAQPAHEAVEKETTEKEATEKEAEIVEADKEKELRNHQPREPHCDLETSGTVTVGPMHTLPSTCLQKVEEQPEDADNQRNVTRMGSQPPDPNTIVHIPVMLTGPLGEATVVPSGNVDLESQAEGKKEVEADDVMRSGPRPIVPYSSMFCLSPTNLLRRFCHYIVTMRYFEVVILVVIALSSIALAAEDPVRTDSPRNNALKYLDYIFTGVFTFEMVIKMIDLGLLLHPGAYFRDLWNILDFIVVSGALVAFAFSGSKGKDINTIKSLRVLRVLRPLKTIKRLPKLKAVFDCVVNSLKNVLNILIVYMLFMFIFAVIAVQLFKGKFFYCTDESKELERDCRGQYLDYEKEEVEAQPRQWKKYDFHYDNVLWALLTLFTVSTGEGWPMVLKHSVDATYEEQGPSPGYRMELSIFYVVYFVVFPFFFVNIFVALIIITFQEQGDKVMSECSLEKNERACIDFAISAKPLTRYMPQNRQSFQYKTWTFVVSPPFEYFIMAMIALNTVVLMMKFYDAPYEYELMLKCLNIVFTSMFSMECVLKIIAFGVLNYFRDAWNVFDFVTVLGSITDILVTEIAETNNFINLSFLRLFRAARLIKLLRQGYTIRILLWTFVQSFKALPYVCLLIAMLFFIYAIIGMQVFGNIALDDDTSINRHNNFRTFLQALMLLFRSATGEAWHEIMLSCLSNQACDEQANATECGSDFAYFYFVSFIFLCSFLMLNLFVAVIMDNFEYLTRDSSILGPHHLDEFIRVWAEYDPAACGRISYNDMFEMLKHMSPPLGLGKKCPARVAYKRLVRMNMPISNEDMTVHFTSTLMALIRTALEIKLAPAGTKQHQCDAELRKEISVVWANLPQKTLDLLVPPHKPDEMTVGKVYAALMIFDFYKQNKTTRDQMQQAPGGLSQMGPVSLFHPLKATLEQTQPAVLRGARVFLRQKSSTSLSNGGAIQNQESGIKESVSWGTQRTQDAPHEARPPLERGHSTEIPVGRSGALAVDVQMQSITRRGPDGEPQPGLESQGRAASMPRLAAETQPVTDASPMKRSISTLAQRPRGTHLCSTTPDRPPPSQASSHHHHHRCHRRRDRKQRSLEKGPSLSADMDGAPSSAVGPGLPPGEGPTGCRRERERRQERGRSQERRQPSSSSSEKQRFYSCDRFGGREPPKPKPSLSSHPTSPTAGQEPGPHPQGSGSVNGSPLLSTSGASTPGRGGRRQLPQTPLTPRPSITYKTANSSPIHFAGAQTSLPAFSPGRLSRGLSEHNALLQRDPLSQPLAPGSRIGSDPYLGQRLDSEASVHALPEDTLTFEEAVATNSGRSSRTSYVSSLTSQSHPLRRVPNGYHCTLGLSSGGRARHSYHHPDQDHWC
T6 sequence (Q02410 whole entry): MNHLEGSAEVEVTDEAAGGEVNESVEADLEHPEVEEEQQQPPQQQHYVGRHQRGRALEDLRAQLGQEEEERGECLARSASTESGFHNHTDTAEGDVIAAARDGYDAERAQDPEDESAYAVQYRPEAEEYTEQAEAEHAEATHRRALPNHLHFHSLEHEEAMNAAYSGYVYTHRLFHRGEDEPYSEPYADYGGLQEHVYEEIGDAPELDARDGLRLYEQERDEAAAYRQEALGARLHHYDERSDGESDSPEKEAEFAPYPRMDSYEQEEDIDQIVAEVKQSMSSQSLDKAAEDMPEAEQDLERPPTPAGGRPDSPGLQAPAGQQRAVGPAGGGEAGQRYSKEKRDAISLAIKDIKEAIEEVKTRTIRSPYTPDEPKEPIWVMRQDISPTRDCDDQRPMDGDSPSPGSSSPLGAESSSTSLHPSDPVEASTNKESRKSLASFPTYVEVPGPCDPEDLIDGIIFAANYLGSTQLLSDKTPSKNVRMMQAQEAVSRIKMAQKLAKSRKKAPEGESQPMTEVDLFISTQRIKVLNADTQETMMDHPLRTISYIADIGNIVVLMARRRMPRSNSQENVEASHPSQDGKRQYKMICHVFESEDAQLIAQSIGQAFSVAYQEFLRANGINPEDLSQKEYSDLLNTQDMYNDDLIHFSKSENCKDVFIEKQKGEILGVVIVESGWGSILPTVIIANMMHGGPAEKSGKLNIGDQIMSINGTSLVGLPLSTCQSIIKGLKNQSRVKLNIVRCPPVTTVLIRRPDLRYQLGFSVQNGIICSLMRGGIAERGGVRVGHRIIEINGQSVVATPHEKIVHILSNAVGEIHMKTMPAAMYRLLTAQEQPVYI
Test [16] deals with T7, Apoptotic protease-activating factor 1 (Homo sapiens, UniProt O14727).
T7 sequence (O14727 whole entry): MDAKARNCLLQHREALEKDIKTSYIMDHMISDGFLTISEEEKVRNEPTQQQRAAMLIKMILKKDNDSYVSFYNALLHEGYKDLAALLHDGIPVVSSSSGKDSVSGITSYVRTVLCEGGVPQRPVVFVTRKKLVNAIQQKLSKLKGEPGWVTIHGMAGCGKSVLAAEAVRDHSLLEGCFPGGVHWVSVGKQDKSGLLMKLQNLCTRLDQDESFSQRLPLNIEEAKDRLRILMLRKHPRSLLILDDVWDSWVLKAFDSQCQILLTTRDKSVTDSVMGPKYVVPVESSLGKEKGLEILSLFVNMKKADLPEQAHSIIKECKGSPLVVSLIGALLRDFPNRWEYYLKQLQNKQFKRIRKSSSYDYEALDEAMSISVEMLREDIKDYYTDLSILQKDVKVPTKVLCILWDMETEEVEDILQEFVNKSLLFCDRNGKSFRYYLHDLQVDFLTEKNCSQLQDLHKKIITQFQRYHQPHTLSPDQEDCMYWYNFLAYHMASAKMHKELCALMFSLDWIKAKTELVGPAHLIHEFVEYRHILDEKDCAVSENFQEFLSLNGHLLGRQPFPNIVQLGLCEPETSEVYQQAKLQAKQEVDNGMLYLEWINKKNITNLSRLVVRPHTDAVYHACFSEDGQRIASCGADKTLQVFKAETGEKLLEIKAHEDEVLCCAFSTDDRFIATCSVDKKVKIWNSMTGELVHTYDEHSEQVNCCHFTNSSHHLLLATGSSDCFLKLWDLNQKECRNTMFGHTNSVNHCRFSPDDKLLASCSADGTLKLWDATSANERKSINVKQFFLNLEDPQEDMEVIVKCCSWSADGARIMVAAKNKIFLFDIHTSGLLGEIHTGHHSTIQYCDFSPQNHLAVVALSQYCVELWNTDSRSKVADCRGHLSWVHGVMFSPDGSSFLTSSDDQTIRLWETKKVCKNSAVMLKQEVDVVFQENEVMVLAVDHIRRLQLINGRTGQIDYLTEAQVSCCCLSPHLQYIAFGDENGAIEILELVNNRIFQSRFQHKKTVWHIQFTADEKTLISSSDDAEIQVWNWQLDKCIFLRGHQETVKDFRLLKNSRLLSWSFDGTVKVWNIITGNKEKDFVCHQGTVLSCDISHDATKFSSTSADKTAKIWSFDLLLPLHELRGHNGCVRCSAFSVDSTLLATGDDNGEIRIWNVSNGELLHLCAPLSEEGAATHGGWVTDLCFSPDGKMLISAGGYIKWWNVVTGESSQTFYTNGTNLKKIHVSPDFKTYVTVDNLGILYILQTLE
It is filed as functional.

In test [17] the target is T6, Voltage-gated N-type calcium channel alpha-1B subunit/Amyloid beta A4 precursor protein-binding family A member 1. It is filed as protein assay.
Test [18] concerns the target Female germline-specific tumor suppressor gld-1 (Caenorhabditis elegans, UniProt Q17339). Put plainly: inhibitors of GLD-1 binding to TGE RNA, dose response, biochemical, fluorescence polarization, C. elegans (AID 2802).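 Note: fluorescence polarization of labeled TGE RNA bound by purified gld-1 protein.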
For test [19], the target named is T6, Voltage-gated N-type calcium channel alpha-1B subunit/Amyloid beta A4 precursor protein-binding family A member 1. It is filed as protein assay. The source holds these as a separate data set.
For the next test, the target named is Protein Rev (Human immunodeficiency virus type 1 group M subtype B (isolate HXB2)(HIV-1), UniProt P04618). Put plainly: inhibitors of Rev binding to RRE RNA, dose response, biochemical, fluorescence polarization, HIV-1 (AID 434976). More on the design: species or system Human immunodeficiency virus 1. In general terms: Fluorescence polarisation rises when a labelled molecule tumbles more slowly, as on binding a larger partner.
Protein Rev, sequence (P04618 whole entry): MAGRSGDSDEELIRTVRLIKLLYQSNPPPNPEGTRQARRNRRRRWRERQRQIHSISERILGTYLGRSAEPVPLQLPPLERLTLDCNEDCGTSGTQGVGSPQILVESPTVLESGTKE

A further test relates to HEK293. Briefly: Fluorescence-based counterscreen for potentiators or agonists of NPY-Y1: cell-based high-throughput dose response assay for inhibitors of cyclic nucleotide gated ion channel (CNGC) activity. In this assay, the parental HEK293 cell line transfected with a cyclic-nucleotide gated ion channel (CNGC)-based cAMP sensor is used to measure inhibition of isoproterenol-induced CNGC …. Particulars: Homo sapiens. It is filed as functional. A general note: The purpose of a counterscreen is to sort out artefacts and off-target activity.

The target in test [20] is Neuropeptide Y receptor type 2 (Homo sapiens, UniProt P49146). Put plainly: Fluorescence-based counterscreen for agonists of NPY-Y1: cell-based high-throughput dose response assay for agonists of NPY-Y2. The format is functional.
The target of test [21] is Neuropeptide Y receptor type 1 (Homo sapiens, UniProt P25929). Briefly: Fluorescence-based dose response cell-based high-throughput screening assay for agonists of NPY-Y1. [Related pubchem assays: 1697 (Screening assay (NPY-Y1 agonists).), 1359 (Screening assay (NPY-Y2 potentiators or agonists).), 1304 (Screening assay (NPY-Y1 potentiators or agonists).), 1704 (Screening assay (CNGC inhibitors).), 1791 (Summary AID.)]. The format is functional.
Neuropeptide Y receptor type 1, sequence (P25929 whole entry): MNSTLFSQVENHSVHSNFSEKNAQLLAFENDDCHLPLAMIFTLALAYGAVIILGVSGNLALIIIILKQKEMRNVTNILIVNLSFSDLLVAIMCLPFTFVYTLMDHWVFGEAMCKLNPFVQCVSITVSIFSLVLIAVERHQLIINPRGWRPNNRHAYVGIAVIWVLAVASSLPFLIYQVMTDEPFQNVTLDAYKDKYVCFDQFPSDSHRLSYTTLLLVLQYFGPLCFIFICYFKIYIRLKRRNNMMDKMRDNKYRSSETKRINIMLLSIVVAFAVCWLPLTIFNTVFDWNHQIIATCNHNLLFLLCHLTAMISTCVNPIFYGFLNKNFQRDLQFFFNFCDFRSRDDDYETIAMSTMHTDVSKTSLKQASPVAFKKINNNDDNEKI

Active and inactive are the calls of the source. Some results are limits rather than exact numbers.

Female germline-specific tumor suppressor gld-1, sequence (Q17339 whole entry): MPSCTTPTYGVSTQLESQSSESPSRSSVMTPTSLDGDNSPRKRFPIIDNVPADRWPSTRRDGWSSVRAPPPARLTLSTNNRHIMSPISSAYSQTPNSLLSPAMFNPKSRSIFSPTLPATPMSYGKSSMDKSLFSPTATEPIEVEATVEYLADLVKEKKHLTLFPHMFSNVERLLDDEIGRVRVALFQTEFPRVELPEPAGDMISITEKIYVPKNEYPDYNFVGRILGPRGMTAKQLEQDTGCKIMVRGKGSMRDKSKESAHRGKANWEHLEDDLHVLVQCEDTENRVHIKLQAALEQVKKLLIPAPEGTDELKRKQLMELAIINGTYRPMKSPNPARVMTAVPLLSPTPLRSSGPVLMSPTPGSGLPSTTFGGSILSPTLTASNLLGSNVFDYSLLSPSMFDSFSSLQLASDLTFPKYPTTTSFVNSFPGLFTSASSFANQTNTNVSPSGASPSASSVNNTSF

Regarding `O=C(N=Nc1c(O)[nH]c2ccc([N+](=O)[O-])cc12)c1cc(-c2ccccc2Cl)nc2ccccc12`, the IC50 was > 49.8 µM (not active) against Genome polyprotein; 2.89 µM (active) in test [1]; 1.18 µM (active) in test [2]; 4.56 µM (not active) in test [3]; 1.98 µM (active) in test [4]; > 66.6 µM (inactive) in [5]. In addition, the figures for the IC50 (in [6]; at Beta-galactosidase; in test [7]) were > 64 µM (inactive), > 66.6 µM (inactive) and 0.711 µM (active), respectively.
As to `COc1ccc(CC(=O)Nc2oc(-c3ccccc3)c(-c3ccccc3)c2C#N)cc1`, the IC50 in the test on Staphylococcus aureus is 1.96 µM (active).
With `CCOC(=O)N1CCN(c2nc3ccccn3c(=O)c2C=O)CC1`, in test [8], the AC50 (as a rule, the midpoint of the concentration-response curve, whichever way the signal moves) was 32.9 µM (active).
Turning to `NC(=S)N=Nc1c(O)n(Cc2ccccc2)c2ccccc12`, the IC50 in test [9] is > 80 µM (inactive).
Regarding `O=C(CC1Nc2ccccc2NC1=O)Nc1cc(Cl)cc(Cl)c1` (stereo unspecified), the figures for the EC50 in test [10], in test [11] and in test [12] were 152 µM (active), > 300 µM (not active) and 8.64 µM (active), respectively.
Turning to `CCOC(=O)CNC(c1ccccc1)c1cc(Br)ccc1NC(C)=O` (stereo unspecified), the IC50 in [13] and in test [14] was > 43.8 µM (not active) in each case.
For the compound `O=C(NC1CCc2ccccc2C1)c1cc(-c2ccco2)nc2ccccc12` (stereo unspecified), the IC50 in [15] is > 56.8 µM (inactive).
Turning to `Nc1cc2nc3ccccc3nc2cc1N`, the IC50 in [16] is > 100 µM (inactive); in test [17] it was > 50 µM (inactive); in test [18], 4.97 µM (active); in [19], 9.86 µM (active); on Protein Rev, 9.53 µM (active).
Turning to `CN(C)Cc1c(O)ccc2oc(Cc3ccccc3)cc12`, the IC50 with HEK293 is listed as > 35.4 µM (not active). For the same compound, the EC50 – broadly, the concentration at which the effect is half-maximal – in test [20] is > 35.4 µM (not active); in test [21], 14.7 µM (not active).
